Assays:
[1] = tested on: NF-κB–DNA complexes in PK8 nuclear extract; assay: EMSA with nuclear extracts from TNF-α-treated PK8 cells; format: biochemical, human; details: 500 µM A55
Experimental: (§1) For EMSA using nuclear extract, PK8 cells were treated with TNF-α (50 ng/mL) for 10 min before nuclear protein extraction. The cells were washed with ice-cold phosphate-buffered saline (PBS), followed by buffer A (10 mM HEPES–NaOH, pH 7.9, 10 mM KCl, 1.5 mM MgCl2, 0.5 mM DTT, and 0.5 mM phenylmethanesulfonyl fluoride (PMSF)). After 15 min on ice, the cell suspension was centrifuged at 4 °C for 3 min at 2000 rpm, and the resultant cell pellets were resuspended in buffer A. Cells were homogenized using Dounse homogenizer type A (tight, 50 stroke) on ice. Homogenates were centrifuged at 4 °C for 10 min at 5000 rpm, and the resultant nuclear protein pellets were resuspended in buffer C (20 mM HEPES–NaOH pH 7.9, 600 mM KCl, 1.5 mM MgCl2, 25% glycerol, 0.2 mM EDTA, 0.5 mM DTT, and 0.5 mM PMSF). The nuclear proteins were incubated for 1 h on ice with intermittent tapping followed by 15 min of centrifugation at 18,000 rpm (4 °C). The supernatants were dialyzed using a Slide-A-Layzer Dialysis cassette 3500MW (Thermo: 66110) with buffer D (20 mM HEPES–NaOH pH 7.9, 100 mM KCl, 20% glycerol, 0.2 mM EDTA, 0.5 mM DTT, and 0.5 mM PMSF). The dialysis products were then aliquoted, snap-frozen, and stored at −80 °C.

[2] = tested on: T1, NF-κB–DNA complexes in PK8 nuclear extract; assay: as above; format: biochemical, human; details: TNF-α 50 ng/mL 10 min
T1 construct: nuclear extracts from tumor necrosis factor (TNF)-α-treated PK8 cells; endogenous in cells; host or cells: PK8 (human pancreatic carcinoma), TNF-α 50 ng/mL for 10 min, nuclear extract
Experimental: as §1

p52 = target: T2, p52 (Homo sapiens, UniProt Q00653); assay: DSE-FRET p52–DNA binding inhibition; format: biochemical
T2 sequence (Q00653 1-454 limits assumed): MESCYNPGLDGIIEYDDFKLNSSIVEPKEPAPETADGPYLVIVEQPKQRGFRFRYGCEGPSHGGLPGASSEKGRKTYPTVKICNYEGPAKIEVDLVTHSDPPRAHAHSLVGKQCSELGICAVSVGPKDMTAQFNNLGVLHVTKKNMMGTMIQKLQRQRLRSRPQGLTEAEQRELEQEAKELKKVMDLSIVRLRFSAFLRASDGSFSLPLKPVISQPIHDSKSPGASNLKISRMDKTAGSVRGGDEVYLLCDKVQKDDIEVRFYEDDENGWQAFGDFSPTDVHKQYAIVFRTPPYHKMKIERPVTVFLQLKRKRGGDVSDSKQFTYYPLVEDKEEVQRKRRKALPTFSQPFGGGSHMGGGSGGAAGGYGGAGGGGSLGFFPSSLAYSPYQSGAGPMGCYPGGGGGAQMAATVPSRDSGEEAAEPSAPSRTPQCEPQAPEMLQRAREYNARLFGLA
Experimental: Plate-based (384 scale) DNA-binding experiments were carried out with 0.1 µL of 2 mM or 1 mg/mL compound, 2 µL of 80 nM NF-D1 (consisting of NF-01F and NF-14D), 1 µL of 20 ng/µL poly dI-dC, and 6.9 µL of 3.2 pmol protein in binding buffer (10 mM 4-(2-hydroxyethyl)-1-piperazineethanesulfonic acid (HEPES)–NaOH pH 7.9, 50 mM KCl, 0.1 mM ethylenediaminetetraacetic acid (EDTA), 2.5 mM dithiothreitol (DTT), 10% glycerol, and 0.05% Nonidet P40). The plates were incubated for 30 min at room temperature, after which 10 µL of NF-D2 (consisting of NF-02 and NF-13) was added. The plates were centrifuged at 1000 rpm for 30 s, followed by shaking for 30 s using a plate shaker (Biotec). Fluorescence was measured at 528 nm, after excitation at 485 nm, using a multiplate reader (Biotec) over a period of 60 min.

Cc1cc(O)n(CC(=O)O)c(=O)c1C(N)=O [A55, 2-(3-carbamoyl-6-hydroxy-4-methyl-2-oxopyridin-1(2H)-yl) acetic acid]
EMSA band shift, other protein–DNA complexes (lower band) [1]: did not affect the lower band | EMSA band shift, RelA–DNA complex (upper band) [2]: Only the upper band disappeared | p52–DNA binding inhibition at 50 µM (p52; 96-well plates, 50 µM): inhibited only RelA–DNA binding | inhibition at 50 µM (p52; 96 well plate, 50 µM, 120 min-0 min, read-out: Kinetic assay @ 50 µM p52 Inhibition % ΔRFU(120 min-0 min)): 6.66% | IC50 (p52; DSE-FRET): > 100 µM

From publication PMC7734590, “Identification of a Selective RelA Inhibitor Based on DSE-FRET Screening Methods” (International Journal of Molecular Sciences, 2020)
